# Assay results taken from patent US7754896B2, “Indol-alanine derivatives as selective S1P4-agonists” (Novartis AG, priority 2004, dated 2010).
# Key:
# [1] = tested on: CHO; assay: GTPγS binding assay, membranes of wild type CHO cells; type: biochemical
# Procedure: Membrane proteins are prepared from wild type CHO-K1 and the CHO cell clones expressing human S1P4. To obtain 10-30 mg of membrane proteins, cells are grown in one large culture dish (500 cm^2) per cell clone to 80 and 90% confluence. The culture medium is removed and the cells are harvested on ice from the dish, by scraping in 20 ml cold HEPES 10 mM (pH 7.5) supplemented with 0.1% fatty acid-free bovine serum albumin (BSA) and protease inhibitors cocktail (one tablet per 50 ml, Roche Diagnostics, Rotkreuz). […] The protein concentration is determined using the Bio Rad Protein Assay and human IgG as standard. […]
# The selection of the clones to be tested in the GTPγS assay is based on the real time PCR assays. […] The plates are then centrifuged for 10 minutes at 2000 rpm and counted with a TopCount instrument (Packard). […]
# The compounds mentioned in this application are tested for specificity, e.g. the activity they have in the parental cell line prior transformation with the S1P4 cDNA and for selectivity on CHO cells lines transformed with the S1P1, S1P2, S1P3, and S1P5. […] For example, S1P4 specific and selective compounds may have an EC50 (apparent EC50) measured at S1P4 that is 10×, preferably 100× lower that that measured in wild type CHO cells or In cell expressing any of the other four S1P receptors.
# [2] = molecular target: T1, S1P3 (Homo sapiens, UniProt Q99500); assay: GTPγS binding assay, S1P3; type: biochemical; details: CHO cells expressing S1P3
# T1 construct: expressed in transfected cells
# Text: Human S1P1 (GenBank™ accession number M31210) and S1P3 (GenBank™ accession number X83864) cDNA containing the myc sequence in front to the human S1P1 and S1P3 sequences are inserted in the pcDNA 3.1 vector. The vectors are sequenced to completion to confirm the correctness of the construct. The human S1P2 (GI: 4090955, TREMBL: 0195136) is cloned by a PCR based method. Lung cDNA (marathon cDNA) is obtained (BD Biosciences Chontech, Palo Alto, Calif. 94303, USA). Following oligonucleotides are used for the PCR reaction: forward primer CACCATGGGCAGCTTGTACTCGGAGTACCT GM CCC CAA CM GGT CCA G (1 to 45, GenBank™ accession number AF034780) and reverse primer 5′-GATTCAGACCACCGTGTTGCCCTCCAG (1062 to 1039, GenBank™ accession number AF034780), the initiation of the translation (ATG) and the stop codon are underlined. […] The amplified product of around 1100 bp is analyzed by standard agarose gel-electrophoresis. […]
# Membrane proteins are prepared from wild type CHO-K1 and the CHO cell clones expressing human S1P4. […] The protein concentration is determined using the Bio Rad Protein Assay and human IgG as standard. […]
# T1 sequence (Q99500 whole entry): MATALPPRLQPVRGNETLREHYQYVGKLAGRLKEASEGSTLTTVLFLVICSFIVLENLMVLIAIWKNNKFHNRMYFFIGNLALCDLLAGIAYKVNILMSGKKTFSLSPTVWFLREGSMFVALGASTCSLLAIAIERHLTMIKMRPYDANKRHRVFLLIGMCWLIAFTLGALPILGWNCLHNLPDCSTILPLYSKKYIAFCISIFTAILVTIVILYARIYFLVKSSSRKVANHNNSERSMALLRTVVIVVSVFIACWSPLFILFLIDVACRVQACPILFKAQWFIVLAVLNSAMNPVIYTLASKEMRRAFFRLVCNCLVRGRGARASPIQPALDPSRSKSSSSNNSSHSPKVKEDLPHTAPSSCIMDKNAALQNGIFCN
compound,measurement,setting,value
NC(CNC(=O)c1cc2c(-c3ccccc3Cc3ccccc3)cccc2[nH]1)C(=O)O (centres unmarked) [Example 2],EC50,[1],> 10 µM
same,EC50,[2],> 10 µM
